Measurements: article PMC9014845 (Clinical cancer research : an official journal of the …, 2019)
Entries after “also recorded” stand apart in the source; their conditions may differ.

Test system: patients with advanced solid tumors harboring FGFR1–3 gene alterations
Assay: Phase I dose-escalation: safety/tolerability
Assay type: in vivo, human
Settings: for Any TEAE / Any TEAE leading to discontinuation / Any TEAE leading to dose reduction / Any TEAE leading to treatment interruption / Serious TEAE / TEAE: ALT increased / TEAE: AST increased / TEAE: Abdominal pain / TEAE: Alopecia / TEAE: Anemia / TEAE: Back pain / TEAE: Blurred vision / TEAE: Constipation / TEAE: Creatinine increased (in blood) / TEAE: Decreased appetite / TEAE: Diarrhea / TEAE: Dry eye / TEAE: Dry mouth / TEAE: Dry skin / TEAE: Dysgeusia / TEAE: Dyspnea / TEAE: Edema peripheral / TEAE: Fatigue / TEAE: Hyperphosphatemia / TEAE: Hypertension / TEAE: Hypokalemia / TEAE: Hypomagnesemia / TEAE: Mucosal inflammation / TEAE: Myalgia / TEAE: Nail changes / TEAE: Nausea / TEAE: Stomatitis / TEAE: Vomiting: all grades

Substance: Debio 1347
- DLT observed (60 mg): grade-2 dry mouth and eyes
- Any TEAE (60 mg (n=10)): 10 (100) Number (%) of patients
- Any TEAE leading to discontinuation (60 mg (n=10)): 1 (10) Number (%) of patients
- Any TEAE leading to dose reduction (60 mg (n=10)): 2 (20) Number (%) of patients
- Any TEAE leading to treatment interruption (60 mg (n=10)): 6 (60) Number (%) of patients
- Serious TEAE (60 mg (n=10)): 2 (20) Number (%) of patients
- TEAE: ALT increased (60 mg (n=10)): 1 (10) Number (%) of patients
- TEAE: AST increased (60 mg (n=10)): 2 (20) Number (%) of patients
- TEAE: Abdominal pain (60 mg (n=10)): 3 (30) Number (%) of patients
- TEAE: Alopecia (60 mg (n=10)): 1 (10) Number (%) of patients
- TEAE: Anemia (60 mg (n=10)): 4 (40) Number (%) of patients
- TEAE: Back pain (60 mg (n=10)): 0 Number (%) of patients
- TEAE: Blurred vision (60 mg (n=10)): 1 (10) Number (%) of patients
- TEAE: Constipation (60 mg (n=10)): 2 (20) Number (%) of patients
- TEAE: Creatinine increased (in blood) (60 mg (n=10)): 2 (20) Number (%) of patients
- TEAE: Decreased appetite (60 mg (n=10)): 3 (30) Number (%) of patients
- TEAE: Diarrhea (60 mg (n=10)): 7 (70) Number (%) of patients
- TEAE: Dry eye (60 mg (n=10)): 2 (20) Number (%) of patients
- TEAE: Dry mouth (60 mg (n=10)): 4 (40) Number (%) of patients
- TEAE: Dry skin (60 mg (n=10)): 0 Number (%) of patients
- TEAE: Dysgeusia (60 mg (n=10)): 1 (10) Number (%) of patients
- TEAE: Dyspnea (60 mg (n=10)): 3 (30) Number (%) of patients
- TEAE: Edema peripheral (60 mg (n=10)): 1 (10) Number (%) of patients
- TEAE: Fatigue (60 mg (n=10)): 5 (50) Number (%) of patients
- TEAE: Hyperphosphatemia (60 mg (n=10)): 9 (90) Number (%) of patients
- TEAE: Hypertension (60 mg (n=10)): 1 (10) Number (%) of patients
- TEAE: Hypokalemia (60 mg (n=10)): 0 Number (%) of patients
- TEAE: Hypomagnesemia (60 mg (n=10)): 2 (20) Number (%) of patients
- TEAE: Mucosal inflammation (60 mg (n=10)): 1 (10) Number (%) of patients
- TEAE: Myalgia (60 mg (n=10)): 1 (10) Number (%) of patients
- TEAE: Nail changes (60 mg (n=10)): 2 (20) Number (%) of patients
- TEAE: Nausea (60 mg (n=10)): 3 (30) Number (%) of patients
- TEAE: Stomatitis (60 mg (n=10)): 1 (10) Number (%) of patients
- TEAE: Vomiting (60 mg (n=10)): 2 (20) Number (%) of patients
- DLT observed (80 mg): hyperamylasemia; also recorded: grade-3 asymptomatic hypercalcemia
- Any TEAE (80 mg (n=10)): 10(100%) Number (%) of patients
- Any TEAE leading to discontinuation (80 mg (n=10)): 3 (30) Number (%) of patients
- Any TEAE leading to dose reduction (80 mg (n=10)): 2 (20) Number (%) of patients
- Any TEAE leading to treatment interruption (80 mg (n=10)): 5 (50) Number (%) of patients
- Serious TEAE (80 mg (n=10)): 3 (30) Number (%) of patients
- TEAE: ALT increased (80 mg (n=10)): 1 (10) Number (%) of patients
- TEAE: AST increased (80 mg (n=10)): 1 (10) Number (%) of patients
- TEAE: Abdominal pain (80 mg (n=10)): 3 (30) Number (%) of patients
- TEAE: Alopecia (80 mg (n=10)): 1 (10) Number (%) of patients
- TEAE: Anemia (80 mg (n=10)): 2 (20) Number (%) of patients
- TEAE: Back pain (80 mg (n=10)): 0 Number (%) of patients
- TEAE: Blurred vision (80 mg (n=10)): 2 (20) Number (%) of patients
- TEAE: Constipation (80 mg (n=10)): 3 (30) Number (%) of patients
- TEAE: Creatinine increased (in blood) (80 mg (n=10)): 2 (20) Number (%) of patients
- TEAE: Decreased appetite (80 mg (n=10)): 5 (50) Number (%) of patients
- TEAE: Diarrhea (80 mg (n=10)): 5 (50) Number (%) of patients
- TEAE: Dry eye (80 mg (n=10)): 0 Number (%) of patients
- TEAE: Dry mouth (80 mg (n=10)): 5 (50) Number (%) of patients
- TEAE: Dry skin (80 mg (n=10)): 2 (20) Number (%) of patients
- TEAE: Dysgeusia (80 mg (n=10)): 2 (20) Number (%) of patients
- TEAE: Dyspnea (80 mg (n=10)): 1 (10) Number (%) of patients
- TEAE: Edema peripheral (80 mg (n=10)): 2 (20) Number (%) of patients
- TEAE: Fatigue (80 mg (n=10)): 5 (50) Number (%) of patients
- TEAE: Hyperphosphatemia (80 mg (n=10)): 9 (90) Number (%) of patients
- TEAE: Hypertension (80 mg (n=10)): 0 Number (%) of patients
- TEAE: Hypokalemia (80 mg (n=10)): 2 (20) Number (%) of patients
- TEAE: Hypomagnesemia (80 mg (n=10)): 1 (10) Number (%) of patients
- TEAE: Mucosal inflammation (80 mg (n=10)): 3 (30) Number (%) of patients
- TEAE: Myalgia (80 mg (n=10)): 3 (30) Number (%) of patients
- TEAE: Nail changes (80 mg (n=10)): 3 (30) Number (%) of patients
- TEAE: Nausea (80 mg (n=10)): 3 (30) Number (%) of patients
- TEAE: Stomatitis (80 mg (n=10)): 3 (30) Number (%) of patients
- TEAE: Vomiting (80 mg (n=10)): 1 (10) Number (%) of patients
- DLT observed (110 mg): stomatitis; also recorded: grade-3 bilirubin increase and hyper-phosphatemia
- Any TEAE (110 mg (n=9)): 9 (100%) Number (%) of patients
- Any TEAE leading to discontinuation (110 mg (n=9)): 1 (11) Number (%) of patients
- Any TEAE leading to dose reduction (110 mg (n=9)): 7 (78) Number (%) of patients
- Any TEAE leading to treatment interruption (110 mg (n=9)): 8 (89) Number (%) of patients
- Serious TEAE (110 mg (n=9)): 4 (44) Number (%) of patients
- TEAE: ALT increased (110 mg (n=9)): 1 (11) Number (%) of patients
- TEAE: AST increased (110 mg (n=9)): 1 (11) Number (%) of patients
- TEAE: Abdominal pain (110 mg (n=9)): 2 (22) Number (%) of patients
- TEAE: Alopecia (110 mg (n=9)): 4 (44) Number (%) of patients
- TEAE: Anemia (110 mg (n=9)): 3 (33) Number (%) of patients
- TEAE: Back pain (110 mg (n=9)): 1 (11) Number (%) of patients
- TEAE: Blurred vision (110 mg (n=9)): 2 (22) Number (%) of patients
- TEAE: Constipation (110 mg (n=9)): 3 (33) Number (%) of patients
- TEAE: Creatinine increased (in blood) (110 mg (n=9)): 0 Number (%) of patients
- TEAE: Decreased appetite (110 mg (n=9)): 3 (33) Number (%) of patients
- TEAE: Diarrhea (110 mg (n=9)): 3 (33) Number (%) of patients
- TEAE: Dry eye (110 mg (n=9)): 4 (44) Number (%) of patients
- TEAE: Dry mouth (110 mg (n=9)): 4 (44) Number (%) of patients
- TEAE: Dry skin (110 mg (n=9)): 5 (55) Number (%) of patients
- TEAE: Dysgeusia (110 mg (n=9)): 4 (44) Number (%) of patients
- TEAE: Dyspnea (110 mg (n=9)): 3 (33) Number (%) of patients
- TEAE: Edema peripheral (110 mg (n=9)): 2 (22) Number (%) of patients
- TEAE: Fatigue (110 mg (n=9)): 5 (55) Number (%) of patients
- TEAE: Hyperphosphatemia (110 mg (n=9)): 9 (100) Number (%) of patients
- TEAE: Hypertension (110 mg (n=9)): 0 Number (%) of patients
- TEAE: Hypokalemia (110 mg (n=9)): 1 (11) Number (%) of patients
- TEAE: Hypomagnesemia (110 mg (n=9)): 0 Number (%) of patients
- TEAE: Mucosal inflammation (110 mg (n=9)): 2 (22) Number (%) of patients
- TEAE: Myalgia (110 mg (n=9)): 3 (33) Number (%) of patients
- TEAE: Nausea (110 mg (n=9)): 6 (67) Number (%) of patients
- TEAE: Stomatitis (110 mg (n=9)): 7 (78) Number (%) of patients
- TEAE: Vomiting (110 mg (n=9)): 3 (33) Number (%) of patients
- Any TEAE (150 mg (n=3)): 3 (100%) Number (%) of patients
- Any TEAE leading to discontinuation (150 mg (n=3)): 0 (0) Number (%) of patients
- Any TEAE leading to treatment interruption (150 mg (n=3)): 3 (100) Number (%) of patients
- Serious TEAE (150 mg (n=3)): 2 (67) Number (%) of patients
- TEAE: ALT increased (150 mg (n=3)): 0 Number (%) of patients
- TEAE: AST increased (150 mg (n=3)): 0 Number (%) of patients
- TEAE: Abdominal pain (150 mg (n=3)): 1 (33) Number (%) of patients
- TEAE: Alopecia (150 mg (n=3)): 2 (67) Number (%) of patients
- TEAE: Anemia (150 mg (n=3)): 0 Number (%) of patients
